From US20110009411A1, “THERAPEUTIC COMPOSITIONS AND THE USE THEREOF” (Gilead Sciences ,Inc., priority 2007, published 2011)

Test: Steady-state pharmacokinetic interaction study of the Compound and lopinavir/r (LPV/r)
Format: in vivo, human
Details: healthy volunteers
[1] = the Compound 125 mg QD + LPV/r 400/100 mg BID vs the Compound/r 125/100 mg QD (coadministration:alone), 14-day periods, n = 14

| exposures when coadministered with the Compound (steady state) | Compound exposures upon coadministration with LPV/r (steady state) | AUCtau % GMR (90% CI) [1] | Cmax % GMR (90% CI) [1] | Ctau % GMR (90% CI) [1] | SMILES | LPV trough concentrations when coadministered with the Compound (steady state) |
| --- | --- | --- | --- | --- | --- | --- |
| unaltered |  |  |  |  | CC(C)c1nc(CN(C)C(=O)NC(C(=O)NC(Cc2ccccc2)CC(O)C(Cc2ccccc2)NC(=O)OCc2cncs2)C(C)C)cs1 (stereo not shown) [RTV, 1,3-thiazol-5-ylmethyl[3-hydroxy-5-[3-methyl-2-[methyl-[(2-propan-2-yl-1,3-thiazol-4-yl)methyl]carbamoyl]amino-butanoyl]amino-1,6-diphenyl-hexan-2-yl]aminoformate, reference compound] |  |
| unaltered |  |  |  |  | Cc1cccc(C)c1OCC(=O)N[C@@H](Cc1ccccc1)[C@@H](O)C[C@H](Cc1ccccc1)NC(=O)[C@H](C(C)C)N1CCCNC1=O [LPV, (2S)—N-[(2S,4S,5S)-5-{[2-(2,6-dimethyl-phenoxy)acetyl]amino}-4-hydroxy-1,6-diphenyl-hexan-2-yl]-3-methyl-2-(2-oxo-1,3-diazinan-1-yl)butanamide, reference compound] | maintained above recommended target troughs |
|  | substantially elevated | 175% | 152% | 238% | COc1cc2c(cc1Cc1cccc(Cl)c1F)c(=O)c(C(=O)O)cn2[C@H](CO)C(C)C [the Compound, 6-(3-chloro-2-fluorobenzyl)-1-[(2S)-1-hydroxy-3-methylbutan-2-yl]-7-methoxy-4-oxo-1,4-dihydroquinoline-3-carboxylic acid] |  |
